Patent publication US8153818B2, “Triazolyl phenyl benzenesulfonamides” (ChemoCentryx, Inc., priority 2006, dated 2012)
pIC50: −log10 of the molar value.

These compounds were tested against T1, CCR9 (Homo sapiens, UniProt P51686) (assay: CCR9 activity in one of the chemotaxis, binding or calcium mobilization assays). Conditions: assay not specified per compound.
T1 construct: chemokine expressing cells (such as THP-1 cells for CCR2 assay or MOLT-4 cells for CCR9 assay); host or cells: MOLT-4
T1 sequence (P51686 1-369): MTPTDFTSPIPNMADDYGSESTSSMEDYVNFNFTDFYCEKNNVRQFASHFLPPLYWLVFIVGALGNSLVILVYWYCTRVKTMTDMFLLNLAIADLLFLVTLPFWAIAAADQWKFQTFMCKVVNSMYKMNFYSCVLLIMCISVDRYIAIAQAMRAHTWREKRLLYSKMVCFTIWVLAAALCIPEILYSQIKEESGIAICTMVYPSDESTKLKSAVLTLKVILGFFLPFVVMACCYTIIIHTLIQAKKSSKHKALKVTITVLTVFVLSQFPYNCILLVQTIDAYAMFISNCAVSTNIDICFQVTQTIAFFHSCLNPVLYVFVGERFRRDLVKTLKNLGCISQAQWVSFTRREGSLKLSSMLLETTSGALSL
Format: cell-based
Procedure: Conventional migration assay was used to determine the efficacy of potential receptor antagonists in blocking migration mediated through chemokines (such as CCR2 or CCR9). This assay was routinely performed using the ChemoTX® microchamber system with a 5-μm pore-sized polycarbonate membrane. To begin such an assay, chemokine expressing cells (such as THP-1 cells for CCR2 assay or MOLT-4 cells for CCR9 assay) were harvested by centrifugation of cell suspension at 1000 RPM on a GS-6R Beckman centrifuge. The cell pellet was resuspended in chemotaxis buffer (HBSS with 0.1% BSA) at 10×10^6 cells/mL for CCR2 assay (5×10^6 cells/mL for CCR9 assay). Test compounds at desired concentrations were prepared from 10 mM stock solutions by serial dilutions in chemotaxis buffer. An equal volume of cells and compounds were mixed and incubated at room temperature for 15 minutes. Afterwards, 20 μL of the mixture was transferred onto the porous membrane of a migration microchamber, with 29 μL of chemokine ligand (0.1 nM chemokine MCP-1 protein for CCR2 assay or […] chemokine TECK protein for CCR9 assay) placed at the lower chamber. Following an incubation at 37° C. (90-minute for CCR2; 150-minute for CCR9), during which cells migrated against the chemokine gradient, the assay was terminated by removing the cell drops from atop the filter. To quantify cells migrated across the membrane, 5 μL of 7×CyQUANT® solution was added to each well in the lower chamber, and the fluorescence signal measured on a Spectrafluor Plus fluorescence plate reader (TECAN, Durham, N.C.). The degree of inhibition was determined by comparing migration signals between compound-treated and untreated cells. IC50 calculation was further performed by non-linear squares regression analysis using Graphpad Prism (Graphpad Software, San Diego, Calif.).
Calcium flux assay measures an increase in intracellular calcium following ligand-induced receptor activation. In the screen of chemokine antagonists, it was used as a secondary assay carried out on a FLIPR® machine (Molecular Devices, Mountain View, Calif.). To begin an assay, chemokine expressing cells (such as THP-1 cells for CCR2 assay or MOLT-4 cells for CCR9 assay) were harvested by centrifugation of cell suspension, and resuspended to 1.5×10^6 cells/mL in HBSS (with 1% fetal calf serum). Cells were then labeled with a calcium indicator dye Fluo-4 AM for 45 minutes at 37° C. with gentle shaking. Following incubation, cells were pelletted, washed once with HBSS and resuspended in the same buffer at a density of 1.6×10^6 cells/mL. One hundred microliters of labeled cells were mixed with 10 μL of test compound at the appropriate concentrations on an assay plate. Chemokine protein (MCP-1 at a final concentration of 0.1 nM for CCR2 assay or TECK at a final concentration of 25 nM for CCR9 assay) to activate the receptor. The degree of inhibition was determined by comparing calcium signals between compound-treated and untreated cells. IC50 calculations were further performed by non-linear squares regression analysis using Graphpad Prism (Graphpad Software, San Diego, Calif.). […]
In the tables below, structures and activity are provided for representative compounds described herein. Activity is provided as follows for either or both of the chemotaxis assay and/or calcium mobilization assays, described above.

pIC50, > 6.00:
CCNCc1nnc(-c2cc(Cl)c(F)cc2NS(=O)(=O)c2ccc(C(C)(C)C)cc2)n1C [Compound 48, 4-tert-butyl-N-(4-chloro-2-(5-((ethylamino)methyl)-4-methyl-4H-1,2,4-triazol-3-yl)-5-fluorophenyl)benzenesulfonamide]
CC(C)NCc1nnc(-c2cc(Cl)c(F)cc2NS(=O)(=O)c2ccc(C(C)(C)C)cc2)n1C [Compound 49, 4-tert-butyl-N-(4-chloro-5-fluoro-2-(5-((isopropylamino)methyl)-4-methyl-4H-1,2,4-triazol-3-yl)phenyl)benzenesulfonamide]
Cn1c(CNC2CC2)nnc1-c1cc(Cl)c(F)cc1NS(=O)(=O)c1ccc(C(C)(C)C)cc1 [Compound 50, 4-tert-butyl-N-(4-chloro-2-(5-((cyclopropylamino)methyl)-4-methyl-4H-1,2,4-triazol-3-yl)-5-fluorophenyl)benzenesulfonamide]
COCc1nnc(-c2cc(Cl)c(F)cc2NS(=O)(=O)c2ccc(C(C)(C)C)cc2)n1C(C)C [Compound 51, 4-tert-butyl-N-(4-chloro-5-fluoro-2-(4-isopropyl-5-(methoxymethyl)-4H-1,2,4-triazol-3-yl)phenyl)benzenesulfonamide]
COCc1nnc(-c2cc(Cl)c(F)cc2NS(=O)(=O)c2ccc(C(C)(C)C)cc2)n1C1CCOC1 (stereo not shown) [Compound 52, 4-tert-butyl-N-(4-chloro-5-fluoro-2-(5-(methoxymethyl)-4-(tetrahydrofuran-3-yl)-4H-1,2,4-triazol-3-yl)phenyl)benzenesulfonamide]
CC(C)(C)c1ccc(S(=O)(=O)Nc2cc(F)c(Cl)cc2-c2nncn2[C@@H]2CCOC2)cc1 [Compound 53]
CC(C)(C)c1ccc(S(=O)(=O)Nc2cc(F)c(Cl)cc2-c2nncn2[C@H]2CCOC2)cc1 [Compound 54]
Cn1c(C(N)=O)nnc1-c1cc(Cl)c(F)cc1NS(=O)(=O)c1ccc(C(C)(C)C)cc1 [Compound 55, 5-(2-(4-tert-butylphenylsulfonamido)-5-chloro-4-fluorophenyl)-4-methyl-4H-1,2,4-triazole-3-carboxamide]
CNC(=O)c1nnc(-c2cc(Cl)c(F)cc2NS(=O)(=O)c2ccc(C(C)(C)C)cc2)n1C [Compound 56, 5-(2-(4-tert-butylphenylsulfonamido)-5-chloro-4-fluorophenyl)-N,4-dimethyl-4H-1,2,4-triazole-3-carboxamide]
Cn1c(-c2cc(Cl)c(F)cc2NS(=O)(=O)c2ccc(C(C)(C)C)cc2)nnc1C(C)(C)O [Compound 57, 4-tert-butyl-N-(4-chloro-5-fluoro-2-(5-(2-hydroxypropan-2-yl)-4-methyl-4H-1,2,4-triazol-3-yl)phenyl)benzenesulfonamide]
CC(=O)c1nnc(-c2cc(Cl)c(F)cc2NS(=O)(=O)c2ccc(C(C)(C)C)cc2)n1C [Compound 58, N-(2-(5-acetyl-4-methyl-4H-1,2,4-triazol-3-yl)-4-chloro-5-fluorophenyl)-4-tert-butylbenzenesulfonamide]
CC(O)c1nnc(-c2cc(Cl)c(F)cc2NS(=O)(=O)c2ccc(C(C)(C)C)cc2)n1C (stereo not shown) [Compound 59, 4-tert-butyl-N-(4-chloro-5-fluoro-2-(5-(1-hydroxyethyl)-4-methyl-4H-1,2,4-triazol-3-yl)phenyl)benzenesulfonamide]
C[C@H](O)c1nnc(-c2cc(Cl)c(F)cc2NS(=O)(=O)c2ccc(C(C)(C)C)cc2)n1C [Compound 60]
C[C@@H](O)c1nnc(-c2cc(Cl)c(F)cc2NS(=O)(=O)c2ccc(C(C)(C)C)cc2)n1C [Compound 61]
COCCc1nnc(-c2cc(Cl)c(F)cc2NS(=O)(=O)c2ccc(C(C)(C)C)cc2)n1C [Compound 62, 4-tert-butyl-N-(4-chloro-5-fluoro-2-(5-(2-methoxyethyl)-4-methyl-4H-1,2,4-triazol-3-yl)phenyl)benzenesulfonamide]
Cn1c(-c2cc(Cl)c(F)cc2NS(=O)(=O)c2ccc(C(C)(C)C)cc2)nnc1C1CCCOC1 (stereo not shown) [Compound 63]
CCOC(=O)Cc1nnc(-c2cc(Cl)c(F)cc2NS(=O)(=O)c2ccc(C(C)(C)C)cc2)n1C [Compound 64, ethyl 2-(5-(2-(4-tert-butylphenylsulfonamido)-5-chloro-4-fluorophenyl)-4-methyl-4H-1,2,4-triazol-3-yl)acetate]
Cn1c(CC(C)(C)O)nnc1-c1cc(Cl)c(F)cc1NS(=O)(=O)c1ccc(C(C)(C)C)cc1 [Compound 65, 4-tert-butyl-N-(4-chloro-5-fluoro-2-(5-(2-hydroxy-2-methylpropyl)-4-methyl-4H-1,2,4-triazol-3-yl)phenyl)benzenesulfonamide]
Cn1c(CN2CCOCC2)nnc1-c1cc(Cl)c(F)cc1NS(=O)(=O)c1ccc(C(C)(C)C)cc1 [Compound 66]
Cn1c(CS(C)(=O)=O)nnc1-c1cc(Cl)c(F)cc1NS(=O)(=O)c1ccc(C(C)(C)C)cc1 [Compound 67, 4-tert-butyl-N-(4-chloro-5-fluoro-2-(4-methyl-5-(methylsulfonylmethyl)-4H-1,2,4-triazol-3-yl)phenyl)benzenesulfonamide]
Cc1nnc(-c2cc(Cl)ccc2NS(=O)(=O)c2ccc(OC(C)C)cc2)n1C [Compound 68, N-(4-chloro-2-(4,5-dimethyl-4H-1,2,4-triazol-3-yl)phenyl)-4-isopropoxybenzenesulfonamide]
CC(C)Oc1ccc(S(=O)(=O)Nc2ccc(Cl)cc2-c2nncn2C(C)C)cc1 [Compound 69, N-(4-chloro-2-(4-isopropyl-4H-1,2,4-triazol-3-yl)phenyl)-4-isopropoxybenzenesulfonamide]
Cn1c(-c2cc(Cl)ccc2NS(=O)(=O)c2ccc(C(C)(C)C)cc2)nnc1C1CCNCC1 [Compound 70]
CCn1c(C)nnc1-c1cc(F)c(F)cc1NS(=O)(=O)c1ccc(C(C)(C)C)cc1 [Compound 71, 4-tert-butyl-N-(2-(4-ethyl-5-methyl-4H-1,2,4-triazol-3-yl)-4,5-difluorophenyl)benzenesulfonamide]
Cc1nnc(-c2ccc(F)cc2NS(=O)(=O)c2ccc(C(C)(C)C)cc2)n1C [Compound 72, 4-tert-butyl-N-(2-(4,5-dimethyl-4H-1,2,4-triazol-3-yl)-5-fluorophenyl)benzenesulfonamide]
Cc1nnc(-c2cc(Cl)ccc2NS(=O)(=O)c2ccc(C(C)(C)C)cc2)n1[C@@H]1CCNC1 [Compound 73]
CCn1c(C)nnc1-c1ccc(F)cc1NS(=O)(=O)c1ccc(C(C)(C)C)cc1 [Compound 74, 4-tert-butyl-N-(2-(4-ethyl-5-methyl-4H-1,2,4-triazol-3-yl)-5-fluorophenyl)benzenesulfonamide]
CC(C)(C)c1ccc(S(=O)(=O)Nc2ccc(Cl)cc2-c2nncn2[C@@H]2CCNC2)cc1 [Compound 75]
